Legend:
Type in all cases: cell-based, human
[1] = tested on: CD8+ or CD4+ T-cell depleted PBMC; assay: ELISpot IFN-γ assay after CD8+ or CD4+ T-cell depletion (Example 2, Table 6); conditions: for CD4^+ depletion, test: CD4+ depleted; for CD8^+ Depletion, test: CD8+ depleted
Method: PBMC population depletion was conducted using anti-human CD4+ and anti-CD8^+ coated Dynabeads™ M-450 (Dynal, Great Neck, N.Y.) following the manufacturer's instructions. Mock depletion was done with Dynabeads coated with Sheep anti-mouse IgG. Flow cytometry confirmed that T-cell subset depletions were >99% in all experiments. The data is presented as the % effect (decrease) in activity after T cell subset depletion. […]
The results of this study, summarized in Table 6, identified other CD8^+ epitopes, associated specific HLA class I genes.

PBMC = assay: ELISpot IFN-γ assay with PBMC of Ad5-PfCA immunized volunteers (Example 1); conditions: for IFN-γ ELISpot activity of individual 15-mer peptide: threshold 40 SFC/million; for ELISpot activity of 1 month PBMC: v005, PBMC 1 month
Method: In order to assess the pools for their ability to induce T-cell responses, specifically CD 8^+ responses, PBMC, 1 month post immunization were used, from the five volunteers in Table 1, in ELISpot assays. In these studies, IFN-γ activity was measured in response to exposure to the peptide pools. The assays were conducted essentially as described by Wang, et al., Proc. Natl. Acad. Sci. (U.S.A.), 98: 10817-22.
The stimulation of circulating antigen-specific T cell lymphocytes was evaluated by measurement of γ-IFN induction by ELISPOT. The ELISpot assay was conducted using thawed cryopreserved PBMC at 200 K cells per well. Pre-challenge cells were taken at day 21 and day 22 post AdPfCA vaccination. Cells were suspended in […] complete medium and were stimulated with AMA1 peptides suspended in […] of complete medium. Peptide concentrations used in assays was 10 μg/ml of each peptide tested. Cultures were incubated for 36 h at 37° C., 5% CO2. Depending on availability of cells, each PBMC sample was assayed in duplicate, triplicate, or quadruplicate and the number of IFN-γ-secreting cells recognized as spot-forming cells (SFC) was enumerated using an automated ELISpot reader. In duplicate assays, all values were used in analysis. For triplicate or quadruplicate assays, outliers were rejected if any single value contributed more than 50% of the standard deviation of the triplicate (or quadruplicate) and if its value was three-fold greater or less than the average of the remaining two (or three) values. The mean spot forming cells (SFCs) obtained in negative control wells were subtracted from the value of each test well from the same sample. Negative counts generated by this background subtraction were converted to zero. The mean spot number of the test sample was then calculated and expressed as SFC/million PBMCs. Values obtained with pre-vaccinated samples were subtracted from the post-vaccination values.

[2] = tested on: CD4+ or CD8+ T cell depleted PBMC; assay: ELISpot IFN-γ assay after CD4+ or CD8+ T cell depletion of PBMC (Example 1); parameters: % change of ELISpot activity, CD8 dep vs control: concentration or dose not given beside the values; ELISpot IFN-γ activity, Control dep / ELISpot IFN-γ activity, CD4 dep / ELISpot IFN-γ activity, CD8 dep: unit not given here; conditions: for ELISpot IFN-γ activity, CD4 dep: CD4+ T cells depleted; for ELISpot IFN-γ activity, CD8 dep: CD8+ T cells depleted; for ELISpot IFN-γ activity, Control dep: mock depletion
Method: PBMC population depletion was conducted using anti-human CD4+ and anti-CD8^+ coated Dynabeads™ M-450 (Dynal, Great Neck, N.Y.) following the manufacturer's instructions. Mock depletion was done with Dynabeads coated with Sheep anti-mouse IgG. Flow cytometry confirmed that T-cell subset depletions were >99% in all experiments. The data is presented as the % effect (decrease) in activity after T cell subset depletion.
Finally, we wanted to confirm that indeed the responses to AMA14e were mediated by CD8^+ T cells. We compared activity to AMA14e in ELISpot depletion assays and ICS CD4^+ or CD8^+ T cell IFN-γ assays with Ap1-12 and recombinant AMA1 protein with v001 and v005 (FIG. 3). CD8^+ T cell depletion reduced ELISpot activity to AMA14e by about 85% in v001 and 95% in v005.

[3] = Vol. 1550-11, 4 wk post challenge
[4] = Vol. 1550-10, 12 wk post challenge

For “NSTCRFFVCK (listed as Plasmodium falciparum)”, the “CD4^+ depletion % change” value [1, 3] was 26%, the “CD8^+ Depletion % change” value [1, 3] was 100% and the “CD4^+ depletion, test” value [1, 3] was 153 SFC/10^6. The “CD8^+ Depletion, test” value [1, 3] was 0 SFC/10^6, the “CD4^+ depletion, control” value [1, 3] was 207 SFC/10^6 and the “CD8^+ Depletion, control” value [1, 3] was 207 SFC/10^6. The “T-cell response in ELISpot” value ([1]; primarily attributable to CD8^+ T-cell response) was “stimulated a significant T-cell response”.

With FKADRYKSHGKGYNW [Ap8-6] the “IFN-γ ELISpot activity of individual 15-mer peptide” value (“IFN-γ ELISpot activity” for short) (PBMC; Volunteer 012) was 143 SFC/10^6, the “CD4^+ depletion % change” value [1, 4] was 26% and the “CD8^+ Depletion % change” value [1, 4] was 100%. For the same sequence, the “CD4^+ depletion, test” value [1, 4] was 81 SFC/10^6, the “CD8^+ Depletion, test” value [1, 4] was 0 SFC/10^6 and the “CD4^+ depletion, control” value [1, 4] was 109 SFC/10^6. The “CD8^+ Depletion, control” value [1, 4] was 109 SFC/10^6.

With NQYLKDGGFAFPPTE [Ap4-5] the “IFN-γ ELISpot activity” value (PBMC; Volunteer 005) was 50 SFC/10^6 and the “ELISpot activity of 1 month PBMC” value (PBMC) was 50 sfc/m.

For ETQKCEIFNVKPTCL [Ap8-11], the “IFN-γ ELISpot activity” value (PBMC; Volunteer 001) was 48 SFC/10^6, the “IFN-γ ELISpot activity” value (PBMC; Volunteer 005) was 218 SFC/10^6 and the “IFN-γ ELISpot activity” value (PBMC; Volunteer 008) was 48 SFC/10^6.

With LMSPMTLDEMRHFYK [Ap4-9] the “IFN-γ ELISpot activity” value (PBMC; Volunteer 002) was 189 SFC/10^6, the “IFN-γ ELISpot activity” value (PBMC; Volunteer 005) was 395 SFC/10^6 and the “% change of ELISpot activity, CD4 dep vs control” value (“% change … CD4 dep vs control” for short) ([2]; V005) was −32%. The “% change of ELISpot activity, CD8 dep vs control” value (“% change … CD8 dep vs control” below) ([2]; V005) was −100%, the “ELISpot IFN-γ activity, CD4 dep” value ([2]; V005) was 137 and the “ELISpot IFN-γ activity, CD8 dep” value ([2]; V005) was 1. For the same sequence, the “ELISpot IFN-γ activity, Control dep” value ([2]; V005) was 204.

For CNKLVFELSASDQPK [Ap7-7], the “IFN-γ ELISpot activity” value (PBMC; Volunteer 001) was 77 SFC/10^6.

For EMRHFYKDNKYVKNL [Ap4-11], the “IFN-γ ELISpot activity” value (PBMC; Volunteer 005) was 65 SFC/10^6 and the “ELISpot activity of 1 month PBMC” value (PBMC) was 65 sfc/m.

In the case of LLSAFEFTYMINFGR [Ap1-3], the “IFN-γ ELISpot activity” value (PBMC; Volunteer 001) is reported as 48 SFC/10^6, the “% change … CD4 dep vs control” value ([2]; V001) is reported as −32% and the “% change … CD8 dep vs control” value ([2]; V001) is reported as −56%. For the same sequence, the “ELISpot IFN-γ activity, CD4 dep” value ([2]; V001) was 58, the “ELISpot IFN-γ activity, CD8 dep” value ([2]; V001) was 37 and the “ELISpot IFN-γ activity, Control dep” value ([2]; V001) was 85.

For EDIPHVNEFPAIDLF [Ap7-3], the “IFN-γ ELISpot activity” value (PBMC; Volunteer 001) was 139 SFC/10^6.

In the case of KEYEYPLHQEHTYQQ [Ap1-13], the “IFN-γ ELISpot activity” value (PBMC; Volunteer 001) is reported as 42 SFC/10^6, the “% change … CD4 dep vs control” value ([2]; V001) is reported as “+133%” and the “% change … CD8 dep vs control” value ([2]; V001) is reported as −76%. The “ELISpot IFN-γ activity, CD4 dep” value ([2]; V001) was 168, the “ELISpot IFN-γ activity, CD8 dep” value ([2]; V001) was 17 and the “ELISpot IFN-γ activity, Control dep” value ([2]; V001) was 72.

For INEHREHPKEYEYPL [Ap1-11], the “IFN-γ ELISpot activity” value (PBMC; Volunteer 002) was 180 SFC/10^6, the “IFN-γ ELISpot activity” value (PBMC; Volunteer 005) was 322 SFC/10^6 and the “% change … CD4 dep vs control” value ([2]; V002) was −18%. For the same sequence, the “% change … CD8 dep vs control” value ([2]; V002) was −94%, the “ELISpot IFN-γ activity, CD4 dep” value ([2]; V002) was 152 and the “ELISpot IFN-γ activity, CD8 dep” value ([2]; V002) was 11. The “ELISpot IFN-γ activity, Control dep” value ([2]; V002) was 185, the “% change … CD4 dep vs control” value ([2]; V005) was −37% and the “% change … CD8 dep vs control” value ([2]; V005) was −100%. The “ELISpot IFN-γ activity, CD4 dep” value ([2]; V005) was 145, the “ELISpot IFN-γ activity, CD8 dep” value ([2]; V005) was 0 and the “ELISpot IFN-γ activity, Control dep” value ([2]; V005) was 233.

TSNNEVVVKEEYKDE [Ap10-13] was tested, and the “IFN-γ ELISpot activity” value (PBMC; Volunteer 001) was 250 SFC/10^6, the “IFN-γ ELISpot activity” value (PBMC; Volunteer 012) was 233 SFC/10^6 and the “% change … CD4 dep vs control” value ([2]; V001) was “+148%”. For the same sequence, the “% change … CD8 dep vs control” value ([2]; V001) was −88%, the “ELISpot IFN-γ activity, CD4 dep” value ([2]; V001) was 252 and the “ELISpot IFN-γ activity, CD8 dep” value ([2]; V001) was 13. The “ELISpot IFN-γ activity, Control dep” value ([2]; V001) was 103, the “% change … CD4 dep vs control” value ([2]; V012) was “+14%” and the “% change … CD8 dep vs control” value ([2]; V012) was −100%. For the same sequence, the “ELISpot IFN-γ activity, CD4 dep” value ([2]; V012) was 90, the “ELISpot IFN-γ activity, CD8 dep” value ([2]; V012) was 0 and the “ELISpot IFN-γ activity, Control dep” value ([2]; V012) was 79.

RYKSHGKGYNWGNYN [Ap8-7] was tested, and the “CD4^+ depletion % change” value [1, 4] was 26%, the “CD8^+ Depletion % change” value [1, 4] was 99% and the “CD4^+ depletion, test” value [1, 4] was 54 SFC/10^6. The “CD8^+ Depletion, test” value [1, 4] was 1 SFC/10^6, the “CD4^+ depletion, control” value [1, 4] was 72 SFC/10^6 and the “CD8^+ Depletion, control” value [1, 4] was 72 SFC/10^6.

With MTLDEMRHFYKDNKY [Ap4-10] the “IFN-γ ELISpot activity” value (PBMC; Volunteer 002) was 82 SFC/10^6 and the “IFN-γ ELISpot activity” value (PBMC; Volunteer 005) was 118 SFC/10^6.

For HVNEFPAIDLFECNK [Ap7-4], the “IFN-γ ELISpot activity” value (PBMC; Volunteer 001) was 96 SFC/10^6.

QNSDVYRPINEHREH [Ap1-9] was tested, and the “IFN-γ ELISpot activity” value (PBMC; Volunteer 001) was 48 SFC/10^6.

With CEIFNVKPTCLINNS [Ap8-12] the “IFN-γ ELISpot activity” value (PBMC; Volunteer 005) was 127 SFC/10^6.

— patent US20110117120A1, “Plasmodium falciparum HLA class I restricted T-cell epitopes” (priority 2009, published 2011)
